According to patent US7524880B2, “Crystalline form of a substituted pyrrolidine compound” (Theravance, Inc., priority 2004, dated 2009):
Structures can show the parent of a compound that is named as a salt.

How the values were obtained:
[1] = test system: MCh-induced depressor responses; assay: Methacholine-induced depressor responses in conscious guinea pigs; format: in vivo; conditions: conscious guinea pig, inhalation
Excerpt: Healthy, adult, male Sprague-Dawley guinea pigs (Harlan, Indianapolis, Ind.), weighing between 200 and 300 g were used in these studies. Under isoflurane anesthesia (to effect), animals were instrumented with common carotid artery and jugular vein catheters (PE-50 tubing). The catheters were exteriorized utilizing a subcutaneous tunnel to the subscapular area. All surgical incisions were sutured with 4-0 Ethicon Silk and the catheters locked with heparin (1000 units/mL). Each animal was administered saline (3 mL, SC) at the end of surgery as well as buprenorphine (0.05 mg/kg, IM). Animals were allowed to recover on a heating pad before being returned to their holding rooms.
Approximately 18 to 20 hours following surgery, the animals were weighed and the carotid artery catheter on each animal was connected to a transducer for recording arterial pressure. Arterial pressure and heart rate was recorded using a Biopac MP-100 Acquisition System. Animals were allowed to acclimate and stabilize for a period of 20 minutes.
Each animal was challenged with methylcholine (MCh) (0.3 mg/kg, iv) administer through the jugular venous line and the cardiovascular response was monitored for 10 minutes. […] At 1.5 and 24 h post-dosing, the animals were re-challenged with MCh (0.3 mg/kg, iv) and the hemodynamic response was determined. […]

[2] = Micronization with a jet mill, comparison with unmicronized material; format: physicochemical; conditions: micronized compared to unmicronized material
Excerpt: A sample of a crystalline naphthalene-1,5-disulfonic acid salt of 2-[(S)-1-(8-methylaminooctyl)pyrrolidin-3-yl]-2,2-diphenylacetamide (prepared according to the procedure of Examples 4 and 5) was micronized with a jet mill to give a free-flowing white powder with birefringence observed upon microscopic examination.

[3] = Solution state stability assessment (HPLC); format: physicochemical; conditions: for change in purity (HPLC): 1 mg/mL and 0.1 mg/mL in normal saline, 10 mM citrate pH 5
Protocol: Samples of the crystalline naphthalene-1,5-disulfonic acid salt of 2-[(S)-1-(8-methylaminooctyl)pyrrolidin-3-yl]-2,2-diphenylacetamide of Example 5 were used to prepare an inhalation solution consisting of 1 mg/mL and 0.1 mg/mL salt in normal saline with 10 mM citrate buffer adjusted to pH 5. The resulting solutions were placed in 3 mL borosilicate vials and stoppered with Teflon grey plug stoppers. The solutions were then stored at −20° C., 5° C., 30° C., 60° C. The samples were analyzed according to the HPLC method described in Example 10. After approximately six months for the solutions stored at −20° C., 5° C., and 30° C. there was no detectable change in purity observed (less than 0.5%) for samples stored at 60° C. less than 5% change in purity was observed.

[4] = Thermal analysis (DSC/TGA); format: physicochemical; conditions: heating ramp 5° C./min, ambient to about 300° C.
Protocol: Differential scanning calorimetry (DSC) was performed using a TA Instruments Model Q-10 module with a Thermal Analyst controller. Data were collected and analyzed using TA Instruments Thermal Solutions software. A sample of about 1 mg was accurately weighed into an aluminum pan with lid. The sample was evaluated using a linear heating ramp of 5° C./min from ambient temperature to approximately 300° C. The DSC cell was purged with dry nitrogen during use. A representative DSC trace for a sample of the crystalline naphthalene-1,5-disulfonic acid salt of 2-[(S)-1-(8-methylaminooctyl)pyrrolidin-3-yl]-2,2-diphenylacetamide of Example 5 is shown in FIG. 2.
Thermogravimetric analysis (TGA) was performed using a TA Instruments Model Q-50 module equipped with high resolution capability. Data were collected and analyzed using TA Instruments Thermal Solutions software. A sample weighing about 10 mg was placed onto a platinum pan and scanned with a high resolution-heating rate from ambient temperature to 300° C. The balance and furnace chambers were purged with nitrogen flows during use. A representative TGA trace for a sample of the crystalline naphthalene-1,5-disulfonic acid salt of 2-[(S)-1-(8-methylaminooctyl)pyrrolidin-3-yl]-2,2-diphenylacetamide of Example 5 is shown in FIG. 2.

[5] = Dynamic moisture sorption assessment; format: physicochemical; conditions: for deliquescence: exposed to atmospheric moisture
Protocol: A dynamic moisture sorption (DMS) assessment (also known as a moisture sorption-desorption profile) was performed for a sample of a crystalline naphthalene-1,5-disulfonic acid salt of 2-[(S)-1-(8-methylaminooctyl)pyrrolidin-3-yl]-2,2-diphenylacetamide (prepared according to the procedure of Example 5) using a VTI atmospheric microbalance, SGA-100 system (VTI Corp., Hialeah, Fla. 33016). A sample size of approximately 10 mg was used and the humidity was set at the ambient value at the start of the analysis. A typical DMS analysis consisted of three scans: ambient to 2% RH, 2% RH to 90% RH, 90% RH to 5% RH at a scan rate of 5% RH/step. The mass was measured every two minutes and the RH was changed to the next value (+/−5% RH) when the mass of the sample was stable to within 0.01% for 5 consecutive points.
The salt has an acceptable 1.9% weight gain when it exposed to a broad humidity range from 2% RH up to 90% RH and it has a less than 1% weight gain in the humidity range of 40% RH to 75% RH.

[6] = Solid state stability assessment (HPLC); format: physicochemical
Protocol: Samples of the crystalline naphthalene-1,5-disulfonic acid salt of 2-[(S)-1-(8-methylaminooctyl)pyrrolidin-3-yl]-2,2-diphenylacetamide of Example 5, about 30 mg each, were stored in multiple 3 mL borosilicate vials at −20° C. (closed container), 40° C./75% RH (open and closed container), and at 80° C. (closed container). At specific intervals, the entire contents of a representative vial was analyzed by the following HPLC method:
Samples were prepared as 1 mg/mL solutions using 50% EtOH and 50% citrate buffer (10 mM pH 5 in normal saline). These solutions were then injected onto the HPLC.
The initial purity of the samples was 99.5% as determined by HPLC area percentage. […] (closed container) and 40° C./75% RH (open and closed container).

[7] = solid, 3 months, all conditions

**Q.** For CNCCCCCCCCN1CC[C@@H](C(C(N)=O)(c2ccccc2)c2ccccc2)C1 [Example 1, 2-[(S)-1-(8-Methylaminooctyl)pyrrolidin-3-yl]-2,2-diphenylacetamide], which “apparent lung-selectivity index (ratio of anti-depressor ID50 to bronchoprotective ID50)” value [1] is on record?
**A.** The value was “greater than 5”.

**Q.** Which “change in PXRD pattern, TGA trace, DSC trace, DMS trace, chemical purity, chiral purity and moisture content” value [2] does the source give for CNCCCCCCCCN1CC[C@@H](C(C(N)=O)(c2ccccc2)c2ccccc2)C1 [Example 14, naphthalene-1,5-disulfonic acid salt of 2-[(S)-1-(8-methylaminooctyl)pyrrolidin-3-yl]-2,2-diphenylacetamide] here?
**A.** Its value is “No change was observed”.

**Q.** For CNCCCCCCCCN1CC[C@@H](C(C(N)=O)(c2ccccc2)c2ccccc2)C1 [Example 5, 2-[(S)-1-(8-Methylaminooctyl)pyrrolidin-3-yl]-2,2-diphenylacetamide Naphthalene-1,5-disulfonic Acid Salt], which “change in purity (HPLC)” value ([3]; approximately six months at 60° C.) is on record?
**A.** Its value is “less than 5%”.

**Q.** What about the “change in purity (HPLC)” value ([3]; approximately six months at −20° C., 5° C. and 30° C.) of the same molecule?
**A.** The value was “less than 0.5%”.

**Q.** What about the “change in pH values of solutions” value ([3]; inhalation solutions in normal saline, 10 mM citrate pH 5, approximately six months) of the same molecule?
**A.** The value was “no appreciable change”.

**Q.** And the “thermal decomposition (DSC)” value [4]?
**A.** Its value is “no thermal decomposition below 200 °C”.

**Q.** And the “weight gain on exposure to humidity” value ([5]; 2% RH up to 90% RH)?
**A.** Its value is 1.9%.

**Q.** And the “weight gain on exposure to humidity” value ([5]; 2% RH up to 90% RH, listed as crystalline naphthalene-1,5-disulfonic acid salt of the compound of formula I)?
**A.** Its value is “less than 2%”.

**Q.** What about the deliquescence [5] of the same molecule?
**A.** The deliquescence was “not deliquescent”.

**Q.** What about the deliquescence ([5]; listed as crystalline naphthalene-1,5-disulfonic acid salt) of the same molecule?
**A.** Its deliquescence is “not to be deliquescent”.

**Q.** And the “weight gain on exposure to humidity” value ([5]; humidity range of 40% RH to 75% RH)?
**A.** The value was “less than 1%”.

**Q.** And the “hygroscopicity (moderate)” value ([5]; reversible sorption/desorption profile)?
**A.** The value was less than 5%.

**Q.** What about the “chemical degradation by HPLC” value ([6]; 6 months storage at 40° C. and 75% relative humidity) of the same molecule?
**A.** Its value is “no detectable chemical degradation”.

**Q.** And the “change in the appearance of the material” value [6, 7]?
**A.** The value was “no observable change”.

**Q.** What about the “differences by DSC and TGA” value [6, 7] of the same molecule?
**A.** The value was “no detectable differences”.

**Q.** And the “change in chemical purity (HPLC)” value ([6]; solid, 3 months, all conditions: −20° C. closed, 40° C./75% RH open and closed, 80° C. closed)?
**A.** Its value is “less than 0.5%”.

**Q.** And the “chemical or physical differences” value ([6]; solid, 6 months at −20° C. (closed) and 40° C./75% RH (open and closed))?
**A.** Its value is “no detectable chemical or physical differences”.

**Q.** And the “chemical degradation by HPLC” value ([6]; storage for 28 days at 40° C. and 75% relative humidity)?
**A.** Its value is “less than 0.5%”.
